The IC50 is the concentration that inhibits the measured activity by half.

One test has as its target T1, MMP-2 (Homo sapiens, UniProt P08253).
T1 construct: purchased Oncogene Research Products (Calbiochem) PF023
T1 sequence (P08253 110-660): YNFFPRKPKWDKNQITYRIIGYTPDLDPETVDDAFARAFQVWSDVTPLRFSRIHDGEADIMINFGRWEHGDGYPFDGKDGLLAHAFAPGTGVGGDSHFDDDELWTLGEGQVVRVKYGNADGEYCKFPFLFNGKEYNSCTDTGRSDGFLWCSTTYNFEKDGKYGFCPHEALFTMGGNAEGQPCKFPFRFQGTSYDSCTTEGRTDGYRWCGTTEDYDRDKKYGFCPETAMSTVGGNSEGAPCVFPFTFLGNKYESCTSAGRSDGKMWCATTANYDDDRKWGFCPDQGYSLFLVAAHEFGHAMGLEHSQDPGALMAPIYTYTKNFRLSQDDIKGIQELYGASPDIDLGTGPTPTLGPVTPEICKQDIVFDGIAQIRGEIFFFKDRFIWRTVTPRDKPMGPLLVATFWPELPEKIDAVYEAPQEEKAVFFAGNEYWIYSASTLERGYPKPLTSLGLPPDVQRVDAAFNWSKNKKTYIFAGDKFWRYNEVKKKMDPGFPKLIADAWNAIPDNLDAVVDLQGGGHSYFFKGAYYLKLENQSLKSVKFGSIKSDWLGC
As to the kind of experiment: In-vitro fluorescence assay of MMP-2 activity. It is filed as biochemical. The settings on record: recombinant human MMP-2; read-out: MMP-2 IC50.

The next test has as its target T2, MMP-13 (Homo sapiens, UniProt P45452).
T2 construct: made in house
As to the kind of experiment: In-vitro fluorescence assay of MMP-13 activity. It is filed as biochemical. The note with it: recombinant human catalytic domain of MMP-13; read-out: MMP-13 IC50.

For `CC(C)[C@H](NS(=O)(=O)c1ccc(-c2ccc(NC(=O)c3nc4ccccc4[nH]3)cc2)cc1)C(=O)O` [Example 52, L-2-{4′-[(1H-Benzoimidazole-2-carbonyl)-amino]-biphenyl-4-sulfonylamino}-3-methyl-butyric acid], the IC50 on MMP-2 and at MMP-13 was 0.4 nM throughout.
As for `Cc1c(C(=O)Nc2ccc(-c3ccc(S(=O)(=O)N[C@H](C(=O)O)C(C)C)cc3)cc2)oc2cccc(NC(=O)C(C)C)c12` [Example 50, L-2-{4′-[(4-Isobutyrylamino-3-methyl-benzofuran-2-carbonyl)-amino]-biphenyl-4-sulfonylamino}-3-methyl-butyric acid], the IC50 came out at 7710 nM at MMP-2 and 45 nM on MMP-13.
With `CC(C)[C@H](NS(=O)(=O)c1ccc(-c2ccc(NC(=O)c3cc4c(OCc5ccccc5)cccc4o3)cc2)cc1)C(=O)O` [Example 13, 4′-[(4-Benzyloxy-benzofuran-2-carbonyl)-amino]-biphenyl-4-sulfonyl-L-valine], the IC50 on MMP-2 was found to be 62 nM.
`CNc1cccc2oc(C(=O)Nc3ccc(-c4ccc(S(=O)(=O)N[C@H](C(=O)O)C(C)C)cc4)cc3)c(C)c12` [Example 60, L-3-Methyl-2-{4′-[(3-methyl-4-methylamino-benzofuran-2-carbonyl)-amino]-biphenyl-4-sulfonylamino}-butyric acid]: the values for the half-inhibitory concentration (IC50) on MMP-2 and on MMP-13 were 886 nM and 8 nM, respectively.
The matching figures for `Cc1c(C(=O)Nc2ccc(-c3ccc(S(=O)(=O)N[C@H](C(=O)O)C(C)C)cc3)cc2)oc2cccc(CCCO)c12` [Example 27, L-2-(4′-{[4-(3-Hydroxy-propyl)-3-methyl-benzofuran-2-carbonyl]-amino}-biphenyl-4-sulfonylamino)-3-methyl-butyric acid]: 4410 nM and 7.1 nM.
As for `COc1c(Cl)ccc2oc(COc3ccc(-c4ccc(S(=O)(=O)N[C@H](C(=O)O)C(C)C)cc4)cc3)c(C)c12` [Example 142, L-2-[4′-(5-Chloro-4-methoxy-3-methylbenzofuran-2-ylmethoxy)-biphenyl-4-sulfonylamino]-3-methyl butyric acid], the IC50 at MMP-2 was 130 nM; at MMP-13, 2.1 nM.
Regarding `Cc1nc(-c2ccc(C(F)(F)F)cc2)sc1C(=O)Nc1ccc(-c2ccc(S(=O)(=O)N[C@H](C(=O)O)C(C)C)cc2)cc1` [Example 66, (S)-3-Methyl-2-(4′-{[4-methyl-2-(4-trifluoromethyl-phenyl)-thiazole-5-carbonyl]-amino}-biphenyl-4-sulfonylamino)-butyric acid], the IC50 at MMP-13 came to 121 nM.
As for `COCCCc1cccc2oc(COc3ccc(-c4ccc(S(=O)(=O)N[C@H](C(=O)O)C(C)C)cc4)cc3)c(C)c12` [Example 147, N-[(4′-{[4-(3-methoxypropyl)-3-methyl-1-benzofuran-2-yl]methoxy}-1,1′-biphenyl-4-yl)sulfonyl]-L-valine], at MMP-13, the IC50 worked out at 1.9 nM.
Regarding `CC(C)[C@H](NS(=O)(=O)c1ccc(-c2ccc(NC(=O)c3csnn3)cc2)cc1)C(=O)O` [Example 163, N-({4′-[(1,2,3-thiadiazol-4-ylcarbonyl)amino]-1,1′-biphenyl-4-yl}sulfonyl)-L-valine], the IC50 at MMP-2 worked out at 2 nM.
In the case of `CC(C)[C@H](NS(=O)(=O)c1ccc(-c2ccc(NC(=O)c3cc4cc(N)ccc4o3)cc2)cc1)C(=O)O` [Example 7, N-[(4′-{[(5-amino-1-benzofuran-2-yl)carbonyl]amino}-1,1′-biphenyl-4-yl)sulfonyl]-L-valine], the 50% inhibitory concentration (IC50) at MMP-13 was determined as 1.5 nM.
Still for that read-out and setting: as for `CC(C)[C@@H](C(=O)O)N(Cc1cccnc1)S(=O)(=O)c1ccc(-c2ccc(NC(=O)c3cc4ccccc4o3)cc2)cc1` [Example 81, N-({4′-[(1-Benzofuran-2-ylcarbonyl)amino]-1,1′-biphenyl-4-yl}sulfonyl)-N-(pyridin-3-ylmethyl)-L-valine], the figure is 323 nM.
For the compound `O=C(Nc1ccc(-c2ccc(S(=O)(=O)N[C@@H](Cc3cnc[nH]3)C(=O)O)cc2)cc1)c1cc2ccccc2o1` [Example 17, N-({4′-[(1-Benzofuran-2-ylcarbonyl)amino]-1,1′-biphenyl-4-yl}sulfonyl)-L-Histidine], the half-inhibitory concentration (IC50) at MMP-2 was determined as 37 nM.
Regarding `Cc1cc(-c2cccc3oc(C(=O)Nc4ccc(-c5ccc(S(=O)(=O)N[C@H](C(=O)O)C(C)C)cc5)cc4)c(C)c23)on1` [Example 35, L-3-Methyl-2-(4′-{[3-methyl-4-(3-methyl-isoxazol-5-yl)-benzofuran-2-carbonyl]-amino}-biphenyl-4-sulfonylamino)-butyric acid], on MMP-13, the IC50 came out at 9.9 nM.
As for `COc1c(C(C)=O)ccc2oc(C(=O)Nc3ccc(-c4ccc(S(=O)(=O)N[C@H](C(=O)O)C(C)C)cc4)cc3)c(C)c12` [Example 121, (S)-2-{4′-[(5-Acetyl-4-methoxy-3-methyl-benzofuran-2-carbonyl)-amino]-biphenyl-4-sulfonylamino}-3-methyl-butyric acid], the half-maximal inhibitory concentration (IC50) at MMP-13 was found to be 1020 nM.
Still for that read-out and setting: as for `COc1cc(OC)c2c(C)c(C(=O)Nc3ccc(-c4ccc(S(=O)(=O)N[C@H](C(=O)O)C(C)C)cc4)cc3)oc2c1C` [Example 44, L-2-{4′-[(4,6-Dimethoxy-3,7-dimethyl-benzofuran-2-carbonyl)-amino]-biphenyl-4-sulfonylamino}-3-methyl-butyric acid], the figure is 286 nM; as for `CC(C)[C@@H](C(=O)O)N(C)S(=O)(=O)c1ccc(-c2ccc(NC(=O)c3cc4ccccc4o3)cc2)cc1` [Example 78, N-({4′-[(1-Benzofuran-2-ylcarbonyl)amino]-1,1′-biphenyl-4-yl}sulfonyl)-N-methyl-L-valine], 5600 nM.
With `CC(C)[C@H](NS(=O)(=O)c1ccc(-c2ccc(NS(=O)(=O)c3cccs3)cc2)cc1)C(=O)O` [Example 170, (S)-3-Methyl-2-[4′-(thiophene-2-sulfonylamino)-biphenyl-4-sulfonylamino]-butyric acid], the IC50 at MMP-13 was 2870 nM.
Turning to `CC(C)[C@H](NS(=O)(=O)c1ccc(-c2ccc(NC(=O)c3cc4ccccc4o3)cn2)cc1)C(=O)O` [Example 76, 4-{5-[(Benzofuran-2-carbonyl)-amino]-pyridin-2-yl}-benzenesulfonyl-L-valine], at MMP-13, the IC50 was found to be 3.1 nM.
Take `C=C(Cl)c1ccc2oc(C(=O)Nc3ccc(-c4ccc(S(=O)(=O)N[C@H](C(=O)O)C(C)C)cc4)cc3)c(C)c2c1OC` [Example 122, (S)-2-(4′-{[5-(1-Chloro-vinyl)-4-methoxy-3-methyl-benzofuran-2-carbonyl]-amino}-biphenyl-4-sulfonylamino)-3-methyl-butyric acid]: on MMP-13, the IC50 worked out at 222 nM.
On to `CC(C)[C@H](NS(=O)(=O)c1ccc(-c2ccc(NC(=O)c3oc4cccc5c4c3CN(C)CC5)cc2)cc1)C(=O)O` [Example 85, N-[(4′-{[(4-Methyl-3,4,5,6-tetrahydrofuro[4,3,2-ef][3]benzazepin-2-yl)carbonyl]amino}-1,1′-biphenyl-4-yl)sulfonyl]-L-valine], for which, at MMP-13, the IC50 is 294 nM.
Turning to `CC(C)[C@H](NS(=O)(=O)c1ccc(-c2ccc(NC(=O)c3oc4ccccc4c3-c3ccccc3)cc2)cc1)C(=O)O` [Example 54, L-3-Methyl-2-{4′-[(3-phenyl-benzofuran-2-carbonyl)-amino]-biphenyl-4-sulfonylamino}-butyric acid], at MMP-13, the concentration for half-maximal inhibition (IC50) turned out to be 220 nM.
As for `COc1cccc2cc(C(=O)Nc3ccc(-c4ccc(S(=O)(=O)N[C@H](C(=O)O)C(C)C)cc4)cc3)oc12` [Example 5, N-[(4′-{[(7-methoxy-1-benzofuran-2-yl)carbonyl]amino}-1,1′-biphenyl-4-yl)sulfonyl]-L-valine], the IC50 on MMP-13 is 10.4 nM.

The values are drawn from patent US7420001B2 (Wyeth, priority 2003, dated 2008).
